The record followed here is patent US10829473B2, “Modulators of the cystic fibrosis transmembrane conductance regulator protein and methods of use” (AbbVie Overseas S.Á.R.L., priority 2017, dated 2020).

Where two headings read alike, the source gives them in different places.

The target of this assay is T1, F508delCFTR (Homo sapiens, UniProt P13569, DEL508-508).
T1 construct: expressed in transfected cells; host or cells: CFBE41o- human lung derived epithelial cells (CFBE41o-F508delCFTR-HRP), doxycycline-inducible
The assay can be described thus: Cell Surface Expression-Horse Radish Peroxidase (CSE-HRP) Assay.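 On EC50 (with co-corrector): co-corrector chromenyl benzoic acid corrector at 2 or 3 µM.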 It counts as cell-based. Conditions: for Maximum % activity (with co-corrector) / Maximum % activity (without co-corrector) / Emax: maximum at any tested concentration; for Emax: read-out: Maximum % activity (without co-corrector). As for the experimental part: A cellular assay for measuring the F508delCFTR cell surface expression after correction with test compounds either without or with a co-corrector (2 μM of 3-[(2R,4R)-4-({[1-(2,2-difluoro-1,3-benzodioxol-5-yl)cyclopropyl]carbonyl}amino)-7-methoxy-3,4-dihydro-2H-chromen-2-yl]benzoic acid), was developed in human lung derived epithelial cell line (CFBE4lo−) (Veit G et al, (2012) Mol Biol Cell. 23(21): 4188-4202). The development was achieved by expressing the F508delCFTR mutation along with a horseradish peroxidase (HRP) in the fourth exofacial loop, and then measuring the HRP activity using luminescence readout from these cells, CFBE410-F508delCFTR-HRP, that were incubated overnight with the test corrector compounds, either without or with the co-corrector. For this primary assay, the CFBE410-F508delCFTR-HRP cells were plated in 384-well plates (Greiner Bio-one; Cat 781080) at 4,000 cells/well along with 0.5 μg/mL doxycycline to induce the F508delCFTR-HRP expression and further incubated at 37° C., 5% CO2 for 68-72 hours. The test compounds were then added either without or with a co-corrector at the required concentrations and further incubated for 18-24 hours at 33° C. The highest concentration tested was 20 μM or 30 μM (GI-1 to GIII-36) with an 8-point concentration response curve using a 3-fold dilution in both the test compound without or with the co-corrector. Three replicate plates were run to determine one EC50. All plates contained negative controls (dimethyl sulfoxide, DMSO) and positive control (2 μM or 3 μM (GI-1 to GIII-36) of 3-[(2R,4R)-4-({[1-(2,2-difluoro-1,3-benzodioxol-5-yl)cyclopropyl]carbonyl}amino)-7-methoxy-3,4-dihydro-2H-chromen-2-yl]benzoic acid) as well as on-plate concentration response of the positive control. Post incubation, the plates were washed 5× times with Dulbecco's phosphate buffered saline (DPBS), followed by the addition of the HRP substrate, luminol (50 4), and measuring the HRP activity using luminescence readout on EnVision® Multilabel Plate Reader (Perkin Elmer; product number 2104-0010). The raw counts from the experiment were analyzed using Accelrys® Assay Explorer v3.3.
Z′ greater than 0.5 was used as passing quality control criteria for the plates.
The Z′ is defined as: 1−[3*SDPositve Control+3*SDNegative Control/Absolute(MeanPositive Control−MeanNegative Control)] wherein “SD” is standard deviation.
The % activity measured at each of the 8 test concentrations of the test compound added either without or with a co-corrector (2 μM or 3 μM (GI-1 to GIII-36) of 3-[(2R,4R)-4-({[1-(2,2-difluoro-1,3-benzodioxol-5-yl)cyclopropyl]carbonyl}amino)-7-methoxy-3,4-dihydro-2H-chromen-2-yl]benzoic acid) was normalized to the on-plate positive control using the following formulae: % activity (Test compound without co-corrector)=[(test compound without co-corrector response DMSO response)/(positive control response DMSO response)]*100 % activity (Test compound with co-corrector)=[(test compound with co-corrector response DMSO response)/(positive control response DMSO response)]*100
The maximum % activity achieved for the test compound either without or with a co-corrector at any tested concentration is presented in Table 6 along with the respective EC50's calculated using the following general sigmoidal curve with variable Hill slope equation (described as Model 42 in the Accelrys® Assay Explorer v3.3 software): y=(a−d)/(1+(x/c)b)+d
General sigmoidal curve with concentration, response, top, bottom, EC50 and Hill slope. This model describes a sigmoidal curve with an adjustable baseline, a. The equation can be used to fit curves where response is either increasing or decreasing with respect to the independent variable, “x”.
“x” is a concentration of drug under test.
“a” is the maximum response, and “d” is the minimum response
“c” is the inflection point (EGO for the curve. That is, “y” is halfway between the lower and upper asymptotes when x=c.
“b” is the slope-factor or Hill coefficient. […]

The mark [1] stands for this setting: test compound alone, without co-corrector, read-out: EC50 (without co-corrector).
The mark [2] stands for this setting: with co-corrector, read-out: EC50 (with co-corrector).

T1 sequence (P13569 with tags, fused parts or gaps DEL508-508): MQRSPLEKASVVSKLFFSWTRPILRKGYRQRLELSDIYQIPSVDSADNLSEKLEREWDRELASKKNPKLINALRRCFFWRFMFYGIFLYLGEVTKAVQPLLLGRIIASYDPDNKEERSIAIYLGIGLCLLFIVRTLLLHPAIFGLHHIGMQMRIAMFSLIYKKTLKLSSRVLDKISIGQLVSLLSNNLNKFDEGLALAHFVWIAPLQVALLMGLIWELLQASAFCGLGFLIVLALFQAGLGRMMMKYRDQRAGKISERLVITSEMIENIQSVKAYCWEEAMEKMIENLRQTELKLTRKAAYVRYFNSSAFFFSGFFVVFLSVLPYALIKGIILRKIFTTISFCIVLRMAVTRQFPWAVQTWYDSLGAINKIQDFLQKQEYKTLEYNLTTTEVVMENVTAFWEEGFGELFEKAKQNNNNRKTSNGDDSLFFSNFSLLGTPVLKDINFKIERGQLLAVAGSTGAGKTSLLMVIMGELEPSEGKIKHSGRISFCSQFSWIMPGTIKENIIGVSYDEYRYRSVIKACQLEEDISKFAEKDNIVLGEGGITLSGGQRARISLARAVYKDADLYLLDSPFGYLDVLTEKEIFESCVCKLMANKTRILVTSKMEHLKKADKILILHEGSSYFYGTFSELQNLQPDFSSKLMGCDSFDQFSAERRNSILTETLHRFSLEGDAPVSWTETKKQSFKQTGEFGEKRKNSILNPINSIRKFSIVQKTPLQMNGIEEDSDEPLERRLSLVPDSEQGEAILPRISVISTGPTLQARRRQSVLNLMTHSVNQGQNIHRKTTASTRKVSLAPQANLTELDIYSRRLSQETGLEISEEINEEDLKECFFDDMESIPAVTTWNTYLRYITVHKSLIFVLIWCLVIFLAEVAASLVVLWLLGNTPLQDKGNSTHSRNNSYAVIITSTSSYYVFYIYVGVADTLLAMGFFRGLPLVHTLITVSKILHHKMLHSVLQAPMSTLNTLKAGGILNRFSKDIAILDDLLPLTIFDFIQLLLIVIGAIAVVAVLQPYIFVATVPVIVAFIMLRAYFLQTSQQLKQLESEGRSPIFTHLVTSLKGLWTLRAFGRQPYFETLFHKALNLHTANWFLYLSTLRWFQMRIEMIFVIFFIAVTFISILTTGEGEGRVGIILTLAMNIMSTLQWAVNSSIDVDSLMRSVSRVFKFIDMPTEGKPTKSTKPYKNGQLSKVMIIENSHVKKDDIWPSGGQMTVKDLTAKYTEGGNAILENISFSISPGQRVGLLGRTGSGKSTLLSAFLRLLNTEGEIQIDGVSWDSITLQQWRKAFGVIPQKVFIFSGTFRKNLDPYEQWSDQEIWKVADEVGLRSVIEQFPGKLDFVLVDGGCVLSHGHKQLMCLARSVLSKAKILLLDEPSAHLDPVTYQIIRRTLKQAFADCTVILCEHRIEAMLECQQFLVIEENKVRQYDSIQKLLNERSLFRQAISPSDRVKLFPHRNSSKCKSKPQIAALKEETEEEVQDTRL

Regarding “1-[5-(cyclopropylmethoxy)-2-methoxypyridin-4-yl]-N-(2-methylquinoline-5-sulfonyl)cyclopropane-1-carboxamide [Example GI-93]”, under “test compound with co-corrector”, the “Maximum % activity (with co-corrector)” value was “+++ (≥350)”. Further, the EC50 (in general, the concentration needed to bring the measured effect to its halfway point) runs as follows: (test compound with co-corrector, read-out: EC50 (with co-corrector)) below 3 µM; (test compound without co-corrector, read-out: EC50 (without co-corrector)) below 3 µM. Further, the “Maximum % activity (without co-corrector)” value (test compound without co-corrector) is “+++ (≥150)”.

Consider `CC(C)Oc1ncc(Br)cc1C1(C(=O)NS(=O)(=O)c2cccc3ncccc23)CC1` [Example GI-1, 1-{5-bromo-2-[(propan-2-yl)oxy]pyridin-3-yl}-N-(quinoline-5-sulfonyl)cyclopropane-1-carboxamide], for which the EC50 by setting is: under setting [1], below 3 µM; under setting [2], below 3 µM. The “Maximum % activity (with co-corrector)” value (with co-corrector) was “+++ (≥350)”. Moreover, under “without co-corrector”, the Emax is above 150%.

Turning to `CC(C)Oc1ncc(Br)cc1C1(C(=O)NS(=O)(=O)c2cccc3c2CCCN3)CC1` [Example GI-2, 1-{5-bromo-2-[(propan-2-yl)oxy]pyridin-3-yl}-N-(1,2,3,4-tetrahydroquinoline-5-sulfonyl)cyclopropane-1-carboxamide], the EC50 by setting is: under setting [1], below 3 µM; under setting [2], below 3 µM. For the same compound, the “Maximum % activity (with co-corrector)” value (with co-corrector) is on record as “+++ (≥350)”. The Emax (without co-corrector) was above 150%.

As to `COc1ncc(Cl)cc1C1(C(=O)NS(=O)(=O)c2cccc3ccccc23)CC1` [Example GI-3, 1-(5-chloro-2-methoxypyridin-3-yl)-N-(naphthalene-1-sulfonyl)cyclopropane-1-carboxamide], the EC50 under setting [1] is below 3 µM and the EC50 under setting [2] was below 3 µM. Also, the “Maximum % activity (with co-corrector)” value (with co-corrector) was “+++ (≥350)”. Besides, the “Maximum % activity (without co-corrector)” value (without co-corrector) is on record as “+++ (≥150)”.

With `CCCc1nc(C(F)(F)F)ccc1C1(C(=O)NS(=O)(=O)c2cccc3ncccc23)CC1` [Example GI-4, 1-[2-propyl-6-(trifluoromethyl)pyridin-3-yl]-N-(quinoline-5-sulfonyl)cyclopropane-1-carboxamide], the EC50 reads like this: under setting [1], 3 to 10 µM; under setting [2], below 3 µM. In addition, the “Maximum % activity (with co-corrector)” value (with co-corrector) is reported as “+++ (≥350)”. Moreover, the Emax (without co-corrector) was above 150%.

Regarding `O=C(NS(=O)(=O)c1cccc2ncccc12)C1(c2ccc(C(F)(F)F)nc2C2CC2)CC1` [Example GI-5, 1-[2-cyclopropyl-6-(trifluoromethyl)pyridin-3-yl]-N-(quinoline-5-sulfonyl)cyclopropane-1-carboxamide], the concentration giving a half-maximal response (EC50) under setting [1] is 3 to 10 µM and the EC50 under setting [2] is below 3 µM. Also, the “Maximum % activity (with co-corrector)” value (with co-corrector) is “+++ (≥350)”. In addition, for the setting “without co-corrector”, the Emax was above 150%.

Regarding `O=C(NS(=O)(=O)c1cccc2c1CCCN2)C1(c2ccc(C(F)(F)F)nc2C2CC2)CC1` [Example GI-6, 1-[2-cyclopropyl-6-(trifluoromethyl)pyridin-3-yl]-N-(1,2,3,4-tetrahydroquinoline-5-sulfonyl)cyclopropane-1-carboxamide], the EC50 is 3 to 10 µM under setting [1] and below 3 µM under setting [2]. In addition, the “Maximum % activity (with co-corrector)” value (with co-corrector) is listed as “+++ (≥350)”. The Emax (without co-corrector) was above 150%.

`CC(C)c1nc(C(F)(F)F)ccc1C1(C(=O)NS(=O)(=O)c2cccc3ncccc23)CC1` [Example GI-7, 1-[2-(propan-2-yl)-6-(trifluoromethyl)pyridin-3-yl]-N-(quinoline-5-sulfonyl)cyclopropane-1-carboxamide]: the EC50 under setting [1] was 3 to 10 µM and the half-maximal effective concentration (EC50) under setting [2] was below 3 µM. The “Maximum % activity (with co-corrector)” value (with co-corrector) is “+++ (≥350)”. The Emax (without co-corrector) is above 150%.

With `CCCc1nc(C(F)(F)F)ccc1C1(C(=O)NS(=O)(=O)c2cccc3c2CCCN3)CC1` [Example GI-8, 1-[2-propyl-6-(trifluoromethyl)pyridin-3-yl]-N-(1,2,3,4-tetrahydroquinoline-5-sulfonyl)cyclopropane-1-carboxamide], the EC50 is below 3 µM under setting [1] and below 3 µM under setting [2]. Besides, where the note is “with co-corrector”, the “Maximum % activity (with co-corrector)” value is recorded as “+++ (≥350)”. In addition, the Emax (without co-corrector) is above 150%.

For `CC(C)c1nc(C(F)(F)F)ccc1C1(C(=O)NS(=O)(=O)c2cccc3c2CCCN3)CC1` [Example GI-9, 1-[2-(propan-2-yl)-6-(trifluoromethyl)pyridin-3-yl]-N-(1,2,3,4-tetrahydroquinoline-5-sulfonyl)cyclopropane-1-carboxamide], the EC50 was below 3 µM under setting [1] and below 3 µM under setting [2]. Moreover, under “with co-corrector”, the “Maximum % activity (with co-corrector)” value is recorded as “+++ (≥350)”. For the same compound, the Emax (without co-corrector) was above 150%.

For `O=C(NS(=O)(=O)c1cccc2c1CCCN2)C1(c2ccc(C(F)(F)F)nc2C2CCC2)CC1` [Example GI-10, 1-[2-cyclobutyl-6-(trifluoromethyl)pyridin-3-yl]-N-(1,2,3,4-tetrahydroquinoline-5-sulfonyl)cyclopropane-1-carboxamide], the EC50 is below 3 µM under setting [1] and below 3 µM under setting [2]. Besides, under “with co-corrector”, the “Maximum % activity (with co-corrector)” value is “+++ (≥350)”. Besides, under “without co-corrector”, the Emax was above 150%.

In the case of `O=C(NS(=O)(=O)c1cccc2ccccc12)C1(c2ccc(C(F)(F)F)nc2C2CCC2)CC1` [Example GI-11, 1-[2-cyclobutyl-6-(trifluoromethyl)pyridin-3-yl]-N-(naphthalene-1-sulfonyl)cyclopropane-1-carboxamide], the EC50 by setting is: under setting [1], below 3 µM; under setting [2], below 3 µM. For the same compound, the “Maximum % activity (with co-corrector)” value (with co-corrector) is “+++ (≥350)”. Further, the Emax (without co-corrector) was above 150%.

With `CC(C)COc1cnc(C2CC2)c(C2(C(=O)NS(=O)(=O)c3cccc4ncccc34)CC2)c1` [Example GI-12, 1-[2-cyclopropyl-5-(2-methylpropoxy)pyridin-3-yl]-N-(quinoline-5-sulfonyl)cyclopropane-1-carboxamide], the EC50 by setting is: under setting [1], below 3 µM; under setting [2], below 3 µM. Further, the “Maximum % activity (with co-corrector)” value (with co-corrector) was “+++ (≥350)”. In addition, the Emax (without co-corrector) is above 150%.

As for `CCc1cnc(OC(C)C)c(C2(C(=O)NS(=O)(=O)c3cccc4ncccc34)CC2)c1` [Example GI-13, 1-{5-ethyl-2-[(propan-2-yl)oxy]pyridin-3-yl}-N-(quinoline-5-sulfonyl)cyclopropane-1-carboxamide], the EC50 runs as follows: under setting [1], below 3 µM; under setting [2], below 3 µM. Further, the “Maximum % activity (with co-corrector)” value (with co-corrector) is given as “+++ (≥350)”. Moreover, the Emax (without co-corrector) is above 150%.

`CCc1cnc(OC(C)C)c(C2(C(=O)NS(=O)(=O)c3cccc4c3CCCN4)CC2)c1` [Example GI-14, 1-{5-ethyl-2-[(propan-2-yl)oxy]pyridin-3-yl}-N-(1,2,3,4-tetrahydroquinoline-5-sulfonyl)cyclopropane-1-carboxamide]: the EC50 under setting [1] lay within 3 to 10 µM and the EC50 under setting [2] is below 3 µM. Besides, the “Maximum % activity (with co-corrector)” value (with co-corrector) is recorded as “+++ (≥350)”. In addition, where the note is “without co-corrector”, the Emax is above 150%.

Consider `O=C(NS(=O)(=O)c1cccc2ncccc12)C1(c2ccc(C(F)(F)F)nc2N2CCCC2)CC1` [Example GI-15, 1-[2-(pyrrolidin-1-yl)-6-(trifluoromethyl)pyridin-3-yl]-N-(quinoline-5-sulfonyl)cyclopropane-1-carboxamide], for which the EC50 reads like this: under setting [1], below 3 µM; under setting [2], below 3 µM. The “Maximum % activity (with co-corrector)” value (with co-corrector) was “+++ (≥350)”. Besides, the Emax (without co-corrector) is above 150%.
